How the values were obtained:
exon 6 of the IL2RG gene = assay: On-target cleavage efficiency (INDEL, TIDES protocol) of IL2RG gRNAs; format: cell-based; conditions: primary human CD3+ T cells; one day post-editing; 3 independent experiments
[1] = test system: off-target sites in primary human CD3+ cells; assay: GUIDE-seq off-target analysis of IL2RG gRNAs; format: cell-based; conditions: for On-Target Read Count / on-target/off-target profile (GUIDE-seq) / GUIDE-seq Off-Targets / Present in Multiple Replicates: CD3+ T cells; for on-target/off-target profile (GUIDE-seq): multiple independent cell sample replicates; for GUIDE-seq Off-Targets: number of sites; for Present in Multiple Replicates: off-target sites found in at least 2 cell sample replicates;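 for all read-outs here: Cas9 RNP plus double-stranded oligonucleotide nucleofected into CD3+ T cells, capture sites found by sequencing, sites also seen in RNP-free control cells discarded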
[2] = test system: TCR and CD3 expression in CD8+ and CD3+ T cells; assay: TCR and CD3 expression by flow cytometry after TRAC editing; format: cell-based, human; conditions: day seven post-editing
[3] = test system: primary human CD8+ or CD3+ T cells; assay: Cell viability and total cell counts after Cas9/gRNA RNP editing; conditions: day two post-editing
TRAC gene = assay: On-target cleavage efficiency (INDEL, TIDES protocol) of TRAC gRNAs; conditions: day two post-editing, 2 independent experiments

GC1: sgRNA targeting IL2RG exon 6, spacer 5′-ACCAGTGCCTGGCATGTAGT-3′ (spacer only, sgRNA scaffold lacks entry, further chemistry not given here)
Average INDEL Frequency (%) (exon 6 of the IL2RG gene): 46.43%

GC2: sgRNA targeting IL2RG exon 6, spacer 5′-CCAGTGCCTGGCATGTAGTA-3′ (spacer only, sgRNA scaffold lacks entry, further chemistry not given here)
Average INDEL Frequency (%) (exon 6 of the IL2RG gene): 74.67%

GC3: sgRNA targeting IL2RG exon 6, spacer 5′-CAGTGCCTGGCATGTAGTAG-3′ (spacer only, sgRNA scaffold lacks entry, further chemistry not given here)
Average INDEL Frequency (%) (exon 6 of the IL2RG gene): 77.53%

GC4: sgRNA targeting IL2RG exon 6, spacer 5′-GTAGGGGCACAACAAATATA-3′ (spacer only, sgRNA scaffold lacks entry, further chemistry not given here)
Average INDEL Frequency (%) (exon 6 of the IL2RG gene): 41.07%

GC5: sgRNA targeting IL2RG exon 6, spacer 5′-GAATCCTTTCCTGTTTGCAT-3′ (spacer only, sgRNA scaffold lacks entry, further chemistry not given here)
Average INDEL Frequency (%) (exon 6 of the IL2RG gene): 13.03%

GC6: sgRNA targeting IL2RG exon 6, spacer 5′-CCTGTTTGCATTGGAAGCCG-3′ (spacer only, sgRNA scaffold lacks entry, further chemistry not given here)
Average INDEL Frequency (%) (exon 6 of the IL2RG gene): 14.80%

GC7: sgRNA targeting IL2RG exon 6, spacer 5′-GAAGCCGTGGTTATCTCTGT-3′ (spacer only, sgRNA scaffold lacks entry, further chemistry not given here)
Average INDEL Frequency (%) (exon 6 of the IL2RG gene): 31.07%

GC8: sgRNA targeting IL2RG exon 6, spacer 5′-GGTTATCTCTGTTGGCTCCA-3′ (spacer only, sgRNA scaffold lacks entry, further chemistry not given here)
Average INDEL Frequency (%) (exon 6 of the IL2RG gene): 66.40%
On-Target Read Count [1]: 4348
on-target/off-target profile (GUIDE-seq) [1]: generally favorable
GUIDE-seq Off-Targets [1]: 930
Present in Multiple Replicates [1]: 3
Off-Target/On-Target ([1]; site chr1 125180094, Intergenic): 1.54%
Off-Target/On-Target ([1]; site chr16 46390807, Intergenic): 0.14%
Off-Target/On-Target ([1]; site chr16 46399022, Intergenic): 0.46%

GC9: sgRNA targeting IL2RG exon 6, spacer 5′-GTTATCTCTGTTGGCTCCAT-3′ (spacer only, sgRNA scaffold lacks entry, further chemistry not given here)
Average INDEL Frequency (%) (exon 6 of the IL2RG gene): 31.37%

GC10: sgRNA targeting IL2RG exon 6, spacer 5′-AAGGCTGATAATCAATCCCA-3′ (spacer only, sgRNA scaffold lacks entry, further chemistry not given here)
Average INDEL Frequency (%) (exon 6 of the IL2RG gene): 71.77%
On-Target Read Count [1]: 5384
on-target/off-target profile (GUIDE-seq) [1]: generally favorable
GUIDE-seq Off-Targets [1]: 1227
Present in Multiple Replicates [1]: 14
Off-Target/On-Target ([1]; site chr3 108840645, Intronic, TRAT1): 3.05%
Off-Target/On-Target ([1]; site chr5 159185831, Intronic, RNF145): 0.20%
Off-Target/On-Target ([1]; site chr12 62289934, Intronic, USP15): 0.48%
Off-Target/On-Target ([1]; site chr21 17142630, Intergenic): 0.71%
Off-Target/On-Target ([1]; site chrUn_KI270438v1 104161): 1.60%
Off-Target/On-Target ([1]; site chrUn_KI270438v1 104938): 0.28%
Off-Target/On-Target ([1]; site chrUn_KI270438v1 109447): 0.39%
Off-Target/On-Target ([1]; site chrUn_KI270467v1 2297): 0.17%
Off-Target/On-Target ([1]; site chrUn_KI270467v1 2459): 0.17%
Off-Target/On-Target ([1]; site chrUn_KI270467v1 2622): 0.48%
Off-Target/On-Target ([1]; site chrUn_KI270467v1 2830): 0.13%
Off-Target/On-Target ([1]; site chrUn_KI270467v1 3365): 0.26%

GC11: sgRNA targeting IL2RG exon 6, spacer 5′-GGAGCCAACAGAGATAACCA-3′ (spacer only, sgRNA scaffold lacks entry, further chemistry not given here)
Average INDEL Frequency (%) (exon 6 of the IL2RG gene): 15.60%

GC12: sgRNA targeting IL2RG exon 6, spacer 5′-CCACGGCTTCCAATGCAAAC-3′ (spacer only, sgRNA scaffold lacks entry, further chemistry not given here)
Average INDEL Frequency (%) (exon 6 of the IL2RG gene): 58.43%
On-Target Read Count [1]: 2352
on-target/off-target profile (GUIDE-seq) [1]: generally favorable
GUIDE-seq Off-Targets [1]: 1368
Present in Multiple Replicates [1]: 4
Off-Target/On-Target ([1]; site chr13 18212170, Intronic, FAM230C): 1.02%
Off-Target/On-Target ([1]; site chrUn_KI270467v1 2459): 0.77%
Off-Target/On-Target ([1]; site chrUn_KI270467v1 2660): 0.34%
Off-Target/On-Target ([1]; site chrUn_KI270590v1 2621): 0.38%

GC13: sgRNA targeting IL2RG exon 6, spacer 5′-GCTTCCAATGCAAACAGGAA-3′ (spacer only, sgRNA scaffold lacks entry, further chemistry not given here)
Average INDEL Frequency (%) (exon 6 of the IL2RG gene): 35.60%

GC14: sgRNA targeting IL2RG exon 6, spacer 5′-TAGAAAAAAGAAAAGCAAAG-3′ (spacer only, sgRNA scaffold lacks entry, further chemistry not given here)
Average INDEL Frequency (%) (exon 6 of the IL2RG gene): 28.23%

GC15: sgRNA targeting IL2RG exon 6, spacer 5′-TTGTGCCCCTACTACATGCC-3′ (spacer only, sgRNA scaffold lacks entry, further chemistry not given here)
Average INDEL Frequency (%) (exon 6 of the IL2RG gene): 46.77%

TRAC 2: sgRNA targeting TRAC, spacer 5′-AGAGCAACAGTGCTGTGGCC-3′ (spacer only, sgRNA scaffold lacks entry, chemistry not fully specified)
CD3+ cells (%) ([2]; CD3+ T cells): 43.17%
TCR+ cells (%) ([2]; CD3+ T cells): 8.63%
CD3+ cells (%) ([2]; CD8+ T cells): 24.34%
TCR+ cells (%) ([2]; CD8+ T cells): 8.1%
Cell count ([3]; CD3+ T cells): 7.77E+05
Cell count ([3]; CD8+ T cells): 7.84E+05
INDEL Frequency (%) (TRAC gene; CD3+ T cells): 53.85%
INDEL Frequency (%) (TRAC gene; CD8+ T cells): 59.5%

TRAC 2: sgRNA targeting TRAC, spacer 5′-AGAGCAACAGTGCTGTGGCC-3′ (spacer only; sgRNA scaffold lacks entry; TRAC gRNA spacer, TRAC 2)
Cell Viability (%) ([3]; CD3+ T cells): 80%
Cell Viability (%) ([3]; CD8+ T cells): 88.5%
